In PubChem BioAssay (NCI):
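Results reflect a 48-hour exposure of cells in 96-well plates to compound at five concentrations. GI50: concentration for 50% inhibition of growth. TGI: concentration producing complete growth inhibition.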 Where a SMILES comes first, the peptide text is derived from it. The star is where a group is joined. Boc = CC(C)(C)OC(=O)*

Tests used:
Assay in all cases: inhibition of tumour cell growth, NCI panel, 48 h
CCRF-CEM leukemia = system: CCRF-CEM leukemia
MOLT-4 leukemia = system: MOLT-4 leukemia
OVCAR-3 ovarian = system: OVCAR-3 ovarian
NCI-H460 lung = system: NCI-H460 lung
UACC-62 melanoma = system: UACC-62 melanoma
DU-145 prostate = system: DU-145 prostate
TK-10 renal = system: TK-10 renal
HCC-2998 colon = system: HCC-2998 colon
OVCAR-8 ovarian = system: OVCAR-8 ovarian
HCT-15 colon = system: HCT-15 colon
PC-3 prostate = system: PC-3 prostate
NCI-H522 lung = system: NCI-H522 lung
OVCAR-4 ovarian = system: OVCAR-4 ovarian
SR leukemia = system: SR leukemia
HOP-62 NSCLC = system: HOP-62 NSCLC
K-562 leukemia = system: K-562 leukemia
SK-MEL-5 melanoma = system: SK-MEL-5 melanoma
SF-268 CNS = system: SF-268 CNS
M14 melanoma = system: M14 melanoma
SW-620 colon = system: SW-620 colon
ACHN renal = system: ACHN renal
SNB-19 CNS = system: SNB-19 CNS
HT29 colon = system: HT29 colon
LOX IMVI melanoma = system: LOX IMVI melanoma
MCF7 breast = system: MCF7 breast
COLO 205 colon = system: COLO 205 colon
MALME-3M melanoma = system: MALME-3M melanoma
A549 NSCLC = system: A549 NSCLC
T-47D breast = system: T-47D breast
EKVX NSCLC = system: EKVX NSCLC
CAKI-1 renal = system: CAKI-1 renal
SK-OV-3 ovarian = system: SK-OV-3 ovarian
HOP-92 NSCLC = system: HOP-92 NSCLC
UACC-257 melanoma = system: UACC-257 melanoma
SF-295 CNS = system: SF-295 CNS
IGROV1 ovarian = system: IGROV1 ovarian
RPMI-8226 leukemia = system: RPMI-8226 leukemia
HL-60(TB) leukemia = system: HL-60(TB) leukemia
MDA-N = system: MDA-N
MDA-MB-435 = system: MDA-MB-435
MDA-MB-231 breast = system: MDA-MB-231 breast
SK-MEL-28 melanoma = system: SK-MEL-28 melanoma
HCT-116 colon = system: HCT-116 colon
BT-549 breast = system: BT-549 breast
HS 578T breast = system: HS 578T breast
KM12 colon = system: KM12 colon
NCI-H226 lung = system: NCI-H226 lung
NCI-H23 lung = system: NCI-H23 lung
U251 CNS = system: U251 CNS
UO-31 renal = system: UO-31 renal
A498 renal = system: A498 renal
SNB-75 CNS = system: SNB-75 CNS
SF-539 CNS = system: SF-539 CNS
786-0 renal = system: 786-0 renal
OVCAR-5 ovarian = system: OVCAR-5 ovarian
RXF 393 renal = system: RXF 393 renal
SN12C renal = system: SN12C renal
SK-MEL-2 melanoma = system: SK-MEL-2 melanoma
NCI/ADR-RES ovarian = system: NCI/ADR-RES ovarian

CC(C)(C)OC(=O)NC(Cc1ccccc1)C(=O)N1CCCC1C(N)=O (stereo not drawn) (Boc-Phe-Pro-NH2; configuration not given here)
TGI (CCRF-CEM leukemia): > 100 µM
TGI (MOLT-4 leukemia): > 100 µM
TGI (OVCAR-3 ovarian): > 100 µM
TGI (NCI-H460 lung): > 100 µM
TGI (UACC-62 melanoma): > 100 µM
TGI (DU-145 prostate): > 100 µM
TGI (TK-10 renal): > 100 µM
TGI (HCC-2998 colon): > 100 µM
TGI (OVCAR-8 ovarian): > 100 µM
TGI (HCT-15 colon): > 100 µM
TGI (PC-3 prostate): > 100 µM
TGI (NCI-H522 lung): > 100 µM
TGI (OVCAR-4 ovarian): > 100 µM
TGI (SR leukemia): > 100 µM
TGI (HOP-62 NSCLC): > 100 µM
TGI (K-562 leukemia): > 100 µM
TGI (SK-MEL-5 melanoma): > 100 µM
TGI (SF-268 CNS): > 100 µM
TGI (M14 melanoma): > 100 µM
TGI (SW-620 colon): > 100 µM
TGI (ACHN renal): > 100 µM
TGI (SNB-19 CNS): > 100 µM
TGI (HT29 colon): > 100 µM
TGI (LOX IMVI melanoma): > 100 µM
TGI (MCF7 breast): > 100 µM
TGI (COLO 205 colon): > 100 µM
TGI (MALME-3M melanoma): > 100 µM
TGI (A549 NSCLC): > 100 µM
TGI (T-47D breast): > 100 µM
TGI (EKVX NSCLC): > 100 µM
TGI (CAKI-1 renal): > 100 µM
TGI (SK-OV-3 ovarian): > 100 µM
TGI (HOP-92 NSCLC): 74 µM
TGI (UACC-257 melanoma): > 100 µM
TGI (SF-295 CNS): > 100 µM
TGI (IGROV1 ovarian): > 100 µM
TGI (RPMI-8226 leukemia): > 100 µM
TGI (HL-60(TB) leukemia): > 100 µM
TGI (MDA-N): > 100 µM
TGI (MDA-MB-435): > 100 µM
TGI (MDA-MB-231 breast): > 100 µM
TGI (SK-MEL-28 melanoma): > 100 µM
TGI (HCT-116 colon): > 100 µM

NC(=O)c1c(Br)n(C2OC(CO)C(O)C2O)c2ncnc(N)c12 (centres undefined)
GI50 (CCRF-CEM leukemia): 0.8 µM
TGI (CCRF-CEM leukemia): 6.37 µM
GI50 (BT-549 breast): 1.08 µM
TGI (BT-549 breast): 11.2 µM
GI50 (HS 578T breast): 1.48 µM
TGI (HS 578T breast): 9.36 µM
GI50 (KM12 colon): 1.91 µM
TGI (KM12 colon): 12.3 µM
GI50 (MOLT-4 leukemia): 0.36 µM
TGI (MOLT-4 leukemia): 3.46 µM
GI50 (OVCAR-3 ovarian): 1.24 µM
TGI (OVCAR-3 ovarian): 5.59 µM
GI50 (NCI-H460 lung): 1.8 µM
TGI (NCI-H460 lung): 12.5 µM
GI50 (NCI-H226 lung): 4.78 µM
TGI (NCI-H226 lung): 57.6 µM
GI50 (UACC-62 melanoma): 1.63 µM
TGI (UACC-62 melanoma): 3.83 µM
GI50 (NCI-H23 lung): 2.15 µM
TGI (NCI-H23 lung): 13 µM
GI50 (DU-145 prostate): 0.544 µM
TGI (DU-145 prostate): 8.86 µM
GI50 (U251 CNS): 2.92 µM
TGI (U251 CNS): > 86.4 µM
GI50 (TK-10 renal): 0.839 µM
TGI (TK-10 renal): 13.7 µM
GI50 (HCC-2998 colon): 1.71 µM
TGI (HCC-2998 colon): 13.2 µM
GI50 (OVCAR-8 ovarian): 0.763 µM
TGI (OVCAR-8 ovarian): 12.3 µM
GI50 (HCT-15 colon): 0.427 µM
TGI (HCT-15 colon): 7.03 µM
GI50 (PC-3 prostate): 0.593 µM
TGI (PC-3 prostate): 7.57 µM
GI50 (UO-31 renal): 2.16 µM
TGI (UO-31 renal): 13.6 µM
GI50 (NCI-H522 lung): 2.54 µM
TGI (NCI-H522 lung): 11 µM
GI50 (OVCAR-4 ovarian): 1.14 µM
TGI (OVCAR-4 ovarian): 15.3 µM
GI50 (SR leukemia): 1.11 µM
TGI (SR leukemia): 4.9 µM
GI50 (HOP-62 NSCLC): 2.86 µM
TGI (HOP-62 NSCLC): 25.3 µM
GI50 (A498 renal): 3.09 µM
TGI (A498 renal): 15.6 µM
GI50 (K-562 leukemia): 1.43 µM
TGI (K-562 leukemia): > 60.4 µM
GI50 (SK-MEL-5 melanoma): 2.65 µM
TGI (SK-MEL-5 melanoma): 9.85 µM
GI50 (SF-268 CNS): 2.49 µM
TGI (SF-268 CNS): 13.4 µM
GI50 (M14 melanoma): 1.19 µM
TGI (M14 melanoma): 8.76 µM
GI50 (SW-620 colon): 0.545 µM
TGI (SW-620 colon): 9.87 µM
GI50 (ACHN renal): 0.749 µM
TGI (ACHN renal): 10.4 µM
GI50 (SNB-19 CNS): 5.16 µM
TGI (SNB-19 CNS): 59.8 µM
GI50 (SNB-75 CNS): 1.92 µM
TGI (SNB-75 CNS): 18 µM
GI50 (HT29 colon): 1.03 µM
TGI (HT29 colon): 32 µM
GI50 (LOX IMVI melanoma): 0.684 µM
TGI (LOX IMVI melanoma): 6.09 µM
GI50 (SF-539 CNS): 2.43 µM
TGI (SF-539 CNS): 8.73 µM
GI50 (MCF7 breast): 0.246 µM
TGI (MCF7 breast): 2.72 µM
GI50 (COLO 205 colon): 1.45 µM
TGI (COLO 205 colon): 6.07 µM
GI50 (MALME-3M melanoma): 1.47 µM
TGI (MALME-3M melanoma): 6.34 µM
GI50 (A549 NSCLC): 1.97 µM
TGI (A549 NSCLC): 21.4 µM
GI50 (T-47D breast): 0.132 µM
TGI (T-47D breast): 2.88 µM
GI50 (EKVX NSCLC): 4.31 µM
TGI (EKVX NSCLC): 59.8 µM
GI50 (CAKI-1 renal): 0.369 µM
TGI (CAKI-1 renal): 2.43 µM
GI50 (SK-OV-3 ovarian): 1.05 µM
TGI (SK-OV-3 ovarian): 9.95 µM
GI50 (HOP-92 NSCLC): 0.45 µM
TGI (HOP-92 NSCLC): 7.08 µM
GI50 (UACC-257 melanoma): 2.99 µM
TGI (UACC-257 melanoma): 18.4 µM
GI50 (SF-295 CNS): 2.78 µM
TGI (SF-295 CNS): 18.7 µM
GI50 (IGROV1 ovarian): 0.609 µM
TGI (IGROV1 ovarian): 3.95 µM
GI50 (RPMI-8226 leukemia): 1.87 µM
TGI (RPMI-8226 leukemia): 7.51 µM
GI50 (HL-60(TB) leukemia): 0.702 µM
TGI (HL-60(TB) leukemia): 4.11 µM
GI50 (MDA-MB-435): 1.73 µM
TGI (MDA-MB-435): 7.68 µM
GI50 (786-0 renal): 3.04 µM
TGI (786-0 renal): 41.9 µM
GI50 (OVCAR-5 ovarian): 1.39 µM
TGI (OVCAR-5 ovarian): 45.5 µM
GI50 (MDA-MB-231 breast): 3.55 µM
TGI (MDA-MB-231 breast): 29.1 µM
GI50 (RXF 393 renal): 1.37 µM
TGI (RXF 393 renal): 12.9 µM
GI50 (SN12C renal): 1.61 µM
TGI (SN12C renal): 12.9 µM
GI50 (SK-MEL-2 melanoma): 1.82 µM
TGI (SK-MEL-2 melanoma): 5.62 µM
GI50 (SK-MEL-28 melanoma): 3.02 µM
TGI (SK-MEL-28 melanoma): 13.8 µM
GI50 (NCI/ADR-RES ovarian): 1.34 µM
TGI (NCI/ADR-RES ovarian): 12.5 µM
GI50 (HCT-116 colon): 0.71 µM
TGI (HCT-116 colon): > 53.4 µM
